These compounds were tested against T1, full-length MALT1 protein (Strep-MALT1(1-824)-His) (Homo sapiens, UniProt Q9UDY8) (assay: biochemical).
T1 sequence (Q9UDY8 1-824): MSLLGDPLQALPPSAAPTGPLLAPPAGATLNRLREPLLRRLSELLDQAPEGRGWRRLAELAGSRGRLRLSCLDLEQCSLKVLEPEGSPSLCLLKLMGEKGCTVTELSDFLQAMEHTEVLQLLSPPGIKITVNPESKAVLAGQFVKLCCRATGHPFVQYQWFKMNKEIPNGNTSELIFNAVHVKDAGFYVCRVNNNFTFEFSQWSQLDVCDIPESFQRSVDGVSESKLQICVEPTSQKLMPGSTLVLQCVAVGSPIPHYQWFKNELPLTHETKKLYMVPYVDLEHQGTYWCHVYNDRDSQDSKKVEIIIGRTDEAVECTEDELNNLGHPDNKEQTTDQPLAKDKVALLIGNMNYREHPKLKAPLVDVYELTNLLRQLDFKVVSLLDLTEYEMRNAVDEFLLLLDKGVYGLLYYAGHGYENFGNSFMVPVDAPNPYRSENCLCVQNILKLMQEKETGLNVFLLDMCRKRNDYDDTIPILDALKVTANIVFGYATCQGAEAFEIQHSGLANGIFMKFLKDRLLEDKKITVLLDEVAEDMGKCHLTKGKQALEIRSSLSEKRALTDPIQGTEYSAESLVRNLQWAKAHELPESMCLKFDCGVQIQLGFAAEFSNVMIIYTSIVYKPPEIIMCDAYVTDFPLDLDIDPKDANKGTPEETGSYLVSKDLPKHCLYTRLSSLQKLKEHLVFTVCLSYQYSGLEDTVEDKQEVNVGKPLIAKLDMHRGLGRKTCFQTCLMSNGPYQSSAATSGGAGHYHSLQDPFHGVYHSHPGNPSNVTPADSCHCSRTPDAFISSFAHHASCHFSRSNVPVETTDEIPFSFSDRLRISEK
For O=C(Nc1cnc(-n2nccn2)c(Cl)c1)c1cnn(-c2ccncc2)c1C(F)F [Cpd 25, N-(5-chloro-6-(2H-1,2,3-triazol-2-yl)pyridin-3-yl)-5-(difluoromethyl)-1-(pyridin-4-yl)-1H-pyrazole-4-carboxamide], the IC50 was 2950 nM. With N#Cc1cc(NC(=O)c2cnn(-c3ccc(F)nc3)c2C(F)(F)F)cnc1-n1nccn1 [Cpd 123, N-(5-cyano-6-(2H-1,2,3-triazol-2-yl)pyridin-3-yl)-1-(6-(fluoro)pyridin-3-yl)-5-(trifluoromethyl)-1H-pyrazole-4-carboxamide] the IC50 was 794 nM. O=C(Nc1cnc(-n2nccn2)c(Cl)c1)c1cnn(-c2nc(Cl)ccc2C(F)(F)F)c1C(F)(F)F [Cpd 165, 1-(6-chloro-3-(trifluoromethyl)pyridin-2-yl)-N-(5-chloro-6-(2H-1,2,3-triazol-2-yl)pyridin-3-yl)-5-(trifluoromethyl)-1H-pyrazole-4-carboxamide] gave an IC50 of 2290 nM. In the case of O=C(Nc1cnc(-n2nccn2)c(Cl)c1)c1cnn(-c2c(Cl)cc(F)cc2Cl)c1C(F)(F)F [Cpd 93, N-(5-chloro-6-(2H-1,2,3-triazol-2-yl)pyridin-3-yl)-1-(2,6-dichloro-4-fluorophenyl)-5-(trifluoromethyl)-1H-pyrazole-4-carboxamide], the IC50 is reported as 457 nM. N#Cc1cc(NC(=O)c2cnn(-c3ccnc(Cl)c3)c2C(F)(F)F)cnc1-n1nccn1 [Cpd 39, 1-(2-chloropyridin-4-yl)-N-(5-cyano-6-(2H-1,2,3-triazol-2-yl)pyridin-3-yl)-5-(trifluoromethyl)-1H-pyrazole-4-carboxamide] gave an IC50 of 457 nM. Compound N#Cc1cc(NC(=O)c2cnn(-c3cccc(N)n3)c2C(F)(F)F)cnc1-n1nccn1 [Cpd 134, 1-(6-aminopyridin-2-yl)-N-(5-cyano-6-(2H-1,2,3-triazol-2-yl)pyridin-3-yl)-5-(trifluoromethyl)-1H-pyrazole-4-carboxamide] has an IC50 of 263 nM. N#Cc1cc(NC(=O)c2cnn(-c3ncc(F)cc3C#N)c2C(F)(F)F)cnc1-n1nccn1 [Cpd 35, 1-(3-cyano-5-fluoropyridin-2-yl)-N-(5-cyano-6-(2H-1,2,3-triazol-2-yl)pyridin-3-yl)-5-(trifluoromethyl)-1H-pyrazole-4-carboxamide] gave an IC50 of 2240 nM. O=C(Nc1cnc(-n2nccn2)c(Cl)c1)c1cnn(-c2ccc(F)c(Cl)c2)c1C(F)(F)F [Cpd 108, 1-(3-chloro-4-fluorophenyl)-N-(5-chloro-6-(2H-1,2,3-triazol-2-yl)pyridin-3-yl)-5-(trifluoromethyl)-1H-pyrazole-4-carboxamide] showed an IC50 of 776 nM. Compound O=C(Nc1cnc(-n2nccn2)c(Cl)c1)c1cnn(-c2ncc(F)cc2Cl)c1C(F)(F)F [Cpd 105, 1-(3-chloro-5-fluoropyridin-2-yl)-N-(5-chloro-6-(2H-1,2,3-triazol-2-yl)pyridin-3-yl)-5-(trifluoromethyl)-1H-pyrazole-4-carboxamide] has an IC50 of 537 nM. Work on Cc1nc(N)ccc1-n1ncc(C(=O)Nc2cnc(-n3nccn3)c(C#N)c2)c1C(F)(F)F [Cpd 196, 1-(6-amino-2-methylpyridin-3-yl)-N-(5-cyano-6-(2H-1,2,3-triazol-2-yl)pyridin-3-yl)-5-(trifluoromethyl)-1H-pyrazole-4-carboxamide] yielded an IC50 of 1320 nM. For Cc1c(-n2ncc(C(=O)Nc3cnc(-n4nccn4)c(Cl)c3)c2C(F)(F)F)ccnc1Cl [Cpd 155, 1-(2-chloro-3-methylpyridin-4-yl)-N-(5-chloro-6-(2H-1,2,3-triazol-2-yl)pyridin-3-yl)-5-(trifluoromethyl)-1H-pyrazole-4-carboxamide], the IC50 was 257 nM. For Cc1ccc(-n2ncc(C(=O)Nc3cc(C#N)c(-n4nccn4)nc3C)c2C(F)(F)F)nc1N [Cpd 197, 1-(6-amino-5-methylpyridin-2-yl)-N-(5-cyano-2-methyl-6-(2H-1,2,3-triazol-2-yl)pyridin-3-yl)-5-(trifluoromethyl)-1H-pyrazole-4-carboxamide], the IC50 was 2510 nM.

Source: patent US11040031B2, “Pyrazole derivatives as MALT1 inhibitors” (Janssen Pharmaceutica NV, priority 2018, dated 2021)
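Also: fluorogenic LRSR-AMC substrate cleavage by MALT1, 50 min compound preincubation then 4 h reaction at RT, 11-point dilution from 30 µM, scaled between enzyme-free and untreated enzyme controls.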
